Source: ChEMBL document CHEMBL1201862, “PubChem BioAssay data set” (2004)
Activity calls are given as the source filed them.

Columns and labels:
[1] = reduction of Shn3 3'UTR-driven luciferase in osteoblasts – cell-based, Clone20 osteoblasts, firefly luciferase, cherry-picked, dose response (AID 624132); assay type: functional;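 note: firefly luciferase luminescence from reporter carrying the Shn3 3'UTR in osteoblasts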
[2] = loss of viability in HepG2 cells – cell-based, CellTiter-Glo, cherry-picked, cytotoxicity control for Shn3 inhibitor project, dose response (AID 624134); assay type: functional
[3] = molecular target: T1, Corticotropin-releasing factor receptor 2/Corticotropin-releasing factor-binding protein (Homo sapiens, UniProt P24387+Q13324); experiment: activators of CRF receptor 2 with binding protein – uHTS hits, confirmation (AID 602473); assay type: functional; settings: read-out: EC50_Mean
T1 sequence (Q13324 whole entry): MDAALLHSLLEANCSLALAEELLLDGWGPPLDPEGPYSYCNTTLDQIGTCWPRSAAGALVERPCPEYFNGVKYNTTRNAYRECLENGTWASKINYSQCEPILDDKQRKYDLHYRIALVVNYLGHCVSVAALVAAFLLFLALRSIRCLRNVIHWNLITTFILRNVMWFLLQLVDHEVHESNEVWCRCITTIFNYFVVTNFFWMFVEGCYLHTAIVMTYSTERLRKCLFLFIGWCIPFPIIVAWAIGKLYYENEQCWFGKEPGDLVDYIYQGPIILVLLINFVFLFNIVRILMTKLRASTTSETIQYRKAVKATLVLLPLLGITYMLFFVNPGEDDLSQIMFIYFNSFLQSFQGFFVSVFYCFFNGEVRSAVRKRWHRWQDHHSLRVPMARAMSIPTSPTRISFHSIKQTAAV
T1 sequence (P24387 whole entry): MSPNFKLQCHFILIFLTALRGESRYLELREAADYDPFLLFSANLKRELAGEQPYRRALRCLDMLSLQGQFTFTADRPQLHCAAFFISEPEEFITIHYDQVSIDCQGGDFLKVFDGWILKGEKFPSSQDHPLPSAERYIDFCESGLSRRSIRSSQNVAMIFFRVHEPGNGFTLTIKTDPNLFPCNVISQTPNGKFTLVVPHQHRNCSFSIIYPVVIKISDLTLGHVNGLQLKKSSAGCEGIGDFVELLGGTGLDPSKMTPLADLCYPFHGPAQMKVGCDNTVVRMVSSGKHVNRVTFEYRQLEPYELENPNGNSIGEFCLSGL

[4] = non-specific 3'UTR reporter inhibition in Clone20-Shn3RL – cell-based, Renilla luciferase, cherry-picked, counter-screen for Shn3 inhibitor project, dose response (AID 624133); assay type: functional
[5] = microbe, parasite or virus in culture; assay type: functional; settings: Mycobacterium tuberculosis
[6] = molecular target: T2, Cytochrome P450 1A2 (Homo sapiens, UniProt P05177);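 note: PubChem cytochrome P450 panel assay, CYP1A2 panel member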
T2 sequence (P05177 whole entry): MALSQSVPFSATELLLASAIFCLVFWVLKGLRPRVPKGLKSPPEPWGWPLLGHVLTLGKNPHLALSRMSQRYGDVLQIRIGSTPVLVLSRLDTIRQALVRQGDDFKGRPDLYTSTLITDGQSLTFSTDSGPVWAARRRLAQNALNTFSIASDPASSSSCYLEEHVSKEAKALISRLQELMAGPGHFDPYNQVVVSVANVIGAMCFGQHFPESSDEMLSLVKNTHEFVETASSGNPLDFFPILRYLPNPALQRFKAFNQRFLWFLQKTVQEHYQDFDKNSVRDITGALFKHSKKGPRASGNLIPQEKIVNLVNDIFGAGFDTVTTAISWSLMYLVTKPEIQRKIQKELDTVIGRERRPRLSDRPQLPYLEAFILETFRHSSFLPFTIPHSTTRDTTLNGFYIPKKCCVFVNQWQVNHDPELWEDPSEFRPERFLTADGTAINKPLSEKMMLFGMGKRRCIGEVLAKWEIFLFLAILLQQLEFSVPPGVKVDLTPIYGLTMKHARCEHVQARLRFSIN

[7] = molecular target: Cytochrome P450 3A4 (Homo sapiens, UniProt P08684);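 note: CYP3A4 tested as one member of a cytochrome P450 panel screen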
[8] = NIH3T3 cell viability loss – ATP luminescence, mouse fibroblasts, counter-screen, dose response (AID 2010); assay type: functional, cell-based;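 note: cells exposed to compound for about 90 hours before reading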
[9] = molecular target: T3, Heat shock factor protein 1 (Mus musculus, UniProt P38532); experiment: enhancement of HSF1-driven luciferase signal – cell-based, NIH3T3, luminescence, dose retest, confirmation (AID 435004); assay type: functional;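 note: stress induced by proteasome inhibitor MG132 added 30 min after compound; luciferase reporter driven by HSF1 response element in NIH3T3 cells; actives raise luminescence as potentiators of the MG132 stress response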
T3 sequence (P38532 whole entry): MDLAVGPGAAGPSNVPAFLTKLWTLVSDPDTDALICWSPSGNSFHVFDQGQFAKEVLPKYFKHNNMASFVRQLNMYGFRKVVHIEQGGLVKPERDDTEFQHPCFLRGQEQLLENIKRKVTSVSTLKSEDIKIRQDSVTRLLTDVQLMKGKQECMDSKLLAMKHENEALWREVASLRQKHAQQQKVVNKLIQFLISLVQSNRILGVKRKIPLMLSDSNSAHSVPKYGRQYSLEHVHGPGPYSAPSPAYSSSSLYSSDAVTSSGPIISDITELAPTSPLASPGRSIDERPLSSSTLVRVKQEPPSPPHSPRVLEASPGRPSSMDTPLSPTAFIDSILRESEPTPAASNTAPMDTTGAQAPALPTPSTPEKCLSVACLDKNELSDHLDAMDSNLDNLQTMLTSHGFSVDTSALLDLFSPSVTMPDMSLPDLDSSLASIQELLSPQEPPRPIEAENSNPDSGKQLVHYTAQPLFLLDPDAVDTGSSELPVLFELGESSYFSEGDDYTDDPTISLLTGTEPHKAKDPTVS

[10] = Trypanosoma cruzi growth suppression in host cells – NIH3T3 host cells, beta-gal luminescence, confirmation (AID 2044); assay type: functional, cell-based;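 note: intracellular parasites grown in NIH/3T3 mouse fibroblasts as host cells; luminescent beta-galactosidase reporter signal from transgenic T. cruzi replicating inside host cells; inhibitors lower the luminescence signal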
[11] = molecular target: Cytochrome P450 2C19 (Homo sapiens, UniProt P33261); experiment: Cytochrome panel assay with activity outcomes. Panel member name: p450-cyp2c19 Compounds with AC50 equal or less than 10 uM are considered active; assay type: functional
[12] = molecular target: FAD-linked sulfhydryl oxidase ALR (Homo sapiens, UniProt P55789); experiment: ALR-catalysed DTT oxidation blockers – biochemical, H2O2 detection, luminescence, cherry-pick, dose response (AID 493248)
[13] = molecular target: T3, Heat shock factor protein 1; experiment: decrease of HSF1-responsive luciferase luminescence – cell-based, NIH3T3, dose retest, confirmation (AID 2382); assay type: functional;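 note: NIH3T3 fibroblasts with HSF1-driven luciferase reporter stressed by proteasome inhibitor MG132; luminescence from HSF1-driven luciferase expression after 8 hours of MG132 stress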
[14] = molecular target: Cytochrome P450 2C9 (Homo sapiens, UniProt P11712)
[15] = test system: Streptococcus sp. 'group A'; experiment: Streptococcus pyogenes SK(-)GAS viability under kanamycin – luminescence, BacTiterGlo, confirmation, counter-screen for streptokinase expression inhibitor project, dose response (AID 1900); assay type: functional, organism-based
[16] = Luminescence Cell-Based Dose Retest to Confirm Inhibitors of Cancer Stem Cells. [Related pubchem assays (depositor defined):AID2717, AID2721]; assay type: functional; settings: Homo sapiens
[17] = test system: Streptococcus; experiment: GAS UMAA2166 growth inhibition – luminescence, BacTiterGlo, counter-screen for streptokinase expression inhibitor project, dose response (AID 1915); assay type: functional, organism-based;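 note: potency for reduction of bacterial viability or growth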
[18] = viability of PTEN-deleted HCT116 cells – cell-based, HCT116 PTEN knockout, dose response (AID 1047); assay type: functional;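 note: HCT116 colon tumor cells with PTEN knocked out; cells exposed to compound for 60 hours before readout; potency for loss of cell viability measured by luminescence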
[19] = viability of HCT116 lacking mutant beta-catenin – cell-based, human colon tumor, dose response (AID 1045); assay type: functional;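 note: HCT116 colon tumor cells with beta catenin knocked out; cells exposed to compound for 60 hours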
[20] = molecular target: T4, RNA-binding protein pos-1 (Caenorhabditis elegans, UniProt G5EF15); experiment: disruptors of C. elegans POS-1 RNA interaction – biochemical, fluorescence polarization, dose response (AID 1964);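 note: purified POS-1 fused to maltose binding protein made in E. coli; potency of compounds blocking POS-1 binding to fluorescent RNA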
T4 sequence (G5EF15 whole entry): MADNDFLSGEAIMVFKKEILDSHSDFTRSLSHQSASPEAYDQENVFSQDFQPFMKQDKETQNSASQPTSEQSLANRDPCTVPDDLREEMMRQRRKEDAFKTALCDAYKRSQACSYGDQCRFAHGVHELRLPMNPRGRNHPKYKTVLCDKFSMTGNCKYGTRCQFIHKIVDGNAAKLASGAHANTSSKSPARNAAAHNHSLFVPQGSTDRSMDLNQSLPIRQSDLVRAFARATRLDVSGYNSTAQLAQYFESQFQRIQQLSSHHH

[21] = Luminescence Cell-Based Dose Confirmation HTS to Identify Inhibitors of Platelet Dense Granule Release. [Related pubchem assays: 1663 (Primary HTS), 1678 (Summary of Project)]; assay type: functional
[22] = molecular target: T5, Zinc finger protein mex-5 (Caenorhabditis elegans, UniProt Q9XUB2); experiment: potency of MEX-5 RNA-binding blockers – biochemical, C. elegans, fluorescence polarization, dose response (AID 1960)
T5 sequence (Q9XUB2 whole entry): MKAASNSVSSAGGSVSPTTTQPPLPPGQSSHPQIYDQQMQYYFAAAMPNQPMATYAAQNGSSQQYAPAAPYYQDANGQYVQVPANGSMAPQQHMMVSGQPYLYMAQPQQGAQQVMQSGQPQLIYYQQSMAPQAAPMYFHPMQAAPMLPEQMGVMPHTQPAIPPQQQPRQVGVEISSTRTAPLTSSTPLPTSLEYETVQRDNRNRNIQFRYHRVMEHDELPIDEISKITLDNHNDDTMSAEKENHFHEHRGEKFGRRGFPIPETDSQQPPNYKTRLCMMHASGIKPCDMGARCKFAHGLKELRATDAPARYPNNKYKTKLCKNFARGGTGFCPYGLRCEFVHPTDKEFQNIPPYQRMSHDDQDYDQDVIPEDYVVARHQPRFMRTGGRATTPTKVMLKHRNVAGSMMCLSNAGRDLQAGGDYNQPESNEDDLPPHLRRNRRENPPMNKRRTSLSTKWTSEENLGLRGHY

[23] = molecular target: Luciferin 4-monooxygenase (Photinus pyralis, UniProt P08659); experiment: inhibition of purified Photinus pyralis luciferase – biochemical, luminescence, dose response (AID 1891)
Chain of Luciferin 4-monooxygenase (P08659 whole entry): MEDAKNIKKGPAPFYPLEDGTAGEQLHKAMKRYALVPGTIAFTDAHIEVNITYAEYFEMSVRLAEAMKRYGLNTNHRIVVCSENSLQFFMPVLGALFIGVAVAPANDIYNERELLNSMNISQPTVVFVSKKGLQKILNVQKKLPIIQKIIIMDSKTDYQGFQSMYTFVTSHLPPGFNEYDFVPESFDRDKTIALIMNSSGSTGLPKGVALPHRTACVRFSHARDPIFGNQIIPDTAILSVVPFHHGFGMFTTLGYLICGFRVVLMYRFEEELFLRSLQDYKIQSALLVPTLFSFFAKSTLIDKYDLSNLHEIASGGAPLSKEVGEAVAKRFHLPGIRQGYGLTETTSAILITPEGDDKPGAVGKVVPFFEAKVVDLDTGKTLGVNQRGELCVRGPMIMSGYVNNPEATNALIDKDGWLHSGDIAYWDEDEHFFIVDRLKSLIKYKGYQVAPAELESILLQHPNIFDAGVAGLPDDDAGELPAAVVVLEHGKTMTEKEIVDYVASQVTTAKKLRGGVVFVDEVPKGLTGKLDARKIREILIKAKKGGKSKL

Chain of FAD-linked sulfhydryl oxidase ALR (P55789 whole entry): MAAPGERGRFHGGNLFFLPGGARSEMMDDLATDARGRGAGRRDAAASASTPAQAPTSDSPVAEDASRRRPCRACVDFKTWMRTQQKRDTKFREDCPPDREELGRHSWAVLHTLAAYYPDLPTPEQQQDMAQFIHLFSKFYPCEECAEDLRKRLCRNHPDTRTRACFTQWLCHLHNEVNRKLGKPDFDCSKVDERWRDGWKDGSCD
Chain of Cytochrome P450 2C19 (P33261 whole entry): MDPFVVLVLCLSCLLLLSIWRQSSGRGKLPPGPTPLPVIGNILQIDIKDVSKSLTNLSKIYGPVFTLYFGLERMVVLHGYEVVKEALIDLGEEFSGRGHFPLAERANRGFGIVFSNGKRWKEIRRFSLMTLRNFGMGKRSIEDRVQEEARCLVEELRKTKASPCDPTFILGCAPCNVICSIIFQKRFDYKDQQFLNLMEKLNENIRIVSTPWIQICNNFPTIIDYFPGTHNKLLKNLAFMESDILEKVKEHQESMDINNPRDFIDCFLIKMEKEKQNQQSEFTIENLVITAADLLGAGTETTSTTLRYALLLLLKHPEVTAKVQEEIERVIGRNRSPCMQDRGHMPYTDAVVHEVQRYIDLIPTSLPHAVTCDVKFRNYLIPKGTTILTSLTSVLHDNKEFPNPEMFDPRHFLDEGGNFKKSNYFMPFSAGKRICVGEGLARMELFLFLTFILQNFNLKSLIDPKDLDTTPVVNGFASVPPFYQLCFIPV
Chain of Cytochrome P450 3A4 (P08684 whole entry): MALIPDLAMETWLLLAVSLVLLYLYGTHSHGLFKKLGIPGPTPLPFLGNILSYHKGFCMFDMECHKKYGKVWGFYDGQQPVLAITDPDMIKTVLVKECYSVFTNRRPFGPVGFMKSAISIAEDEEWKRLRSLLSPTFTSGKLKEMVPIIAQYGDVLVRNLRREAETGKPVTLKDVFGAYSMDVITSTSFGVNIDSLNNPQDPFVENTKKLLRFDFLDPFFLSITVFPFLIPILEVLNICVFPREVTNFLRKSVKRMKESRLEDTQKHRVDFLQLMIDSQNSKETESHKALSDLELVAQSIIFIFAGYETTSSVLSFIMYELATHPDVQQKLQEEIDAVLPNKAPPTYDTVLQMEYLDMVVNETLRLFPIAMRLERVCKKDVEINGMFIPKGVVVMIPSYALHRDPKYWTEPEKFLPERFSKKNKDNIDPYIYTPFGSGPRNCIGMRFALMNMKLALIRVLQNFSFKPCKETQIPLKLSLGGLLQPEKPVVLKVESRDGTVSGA
Chain of Cytochrome P450 2C9 (P11712 whole entry): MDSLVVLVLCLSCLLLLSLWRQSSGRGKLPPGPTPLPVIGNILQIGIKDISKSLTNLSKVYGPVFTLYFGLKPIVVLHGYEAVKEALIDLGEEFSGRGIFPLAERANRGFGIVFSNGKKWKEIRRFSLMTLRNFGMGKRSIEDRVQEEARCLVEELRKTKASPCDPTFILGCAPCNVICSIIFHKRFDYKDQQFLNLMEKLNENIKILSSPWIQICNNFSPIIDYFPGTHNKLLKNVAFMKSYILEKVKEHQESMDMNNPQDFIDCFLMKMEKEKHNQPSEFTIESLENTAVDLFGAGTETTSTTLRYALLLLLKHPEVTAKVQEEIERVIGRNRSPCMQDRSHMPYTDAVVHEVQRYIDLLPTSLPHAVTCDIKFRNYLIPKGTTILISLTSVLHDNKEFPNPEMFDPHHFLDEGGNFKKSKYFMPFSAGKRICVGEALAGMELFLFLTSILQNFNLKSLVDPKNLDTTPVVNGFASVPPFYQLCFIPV

CC(C)Cc1ccc(C(C)C(=O)Nc2ccccc2O)cc1 (stereo unspecified)
AC50 [1]: 1.89 µM (active) | AC50 [2]: 6.63 µM (active) | EC50 [3]: 5.7 µM (active) | AC50 [4]: 4.26 µM (active)

Cc1sc2ncnc(Oc3ccc(-n4ccnc4)cc3)c2c1C
CC50 [5]: > 40 µM (active)

Cc1cc(O)c(C(C)C)cc1NC(=O)Nc1cccc2ccccc12
AC50 [6]: 0.794 µM (inconclusive) | AC50 [7]: 3.16 µM (inconclusive)

COc1ccc(NC(=O)c2[nH]c(C)c(C(C)=O)c2C)cc1S(=O)(=O)Nc1ccc(Br)cc1
EC50 [8]: > 60 µM (not active) | EC50 [9]: > 260 µM (inactive) | EC50 [10]: 1.12 µM (active)

COc1cc(OC)cc(C(=O)NCC(=O)OC2CCOC2=O)c1 (stereo unspecified)
AC50 [6]: 0.0316 µM (inconclusive) | AC50 [11]: inconclusive

O=C(NNS(=O)(=O)c1ccc(F)cc1)c1cc2ccccc2cc1O
AC50 [12]: 4.07 µM (active)

CCOC(=O)C1(CCOc2ccccc2)CCN(Cc2cccc(-n3cccn3)c2)CC1
CC50 [5]: > 40 µM (active) | EC50 [13]: > 195 µM (not active)

Cc1nn(C)c(Cl)c1S(=O)(=O)N[C@@H](c1ccccc1)[C@]1(C)C[C@H]1[C@@H](C)C(=O)Nc1ccc2ccccc2c1
AC50 [6]: 5.01 µM (inconclusive) | AC50 [14]: 6.31 µM (inconclusive)

COc1ccc(N2CCN(C(=O)c3ccc(SC)cc3OC)CC2)cc1
AC50 [12]: 6.05 µM (active)

FC(F)(F)c1cccc(NC(S)=NCc2ccccn2)c1
EC50 [9]: > 260 µM (inactive)

Cc1ccccc1-c1cncnc1NC1CCNCC1
AC50 [6]: 0.00794 µM (inconclusive)

COc1ccc(NS(=O)(=O)c2ccc3[nH]c(COc4cccc5ccccc45)nc3c2)cc1
EC50 [15]: 6.33 µM (active) | AC50 [16]: 3.87 µM (active) | CC50 [5]: 32.6 µM (active) | EC50 [17]: 91 µM (active)

Cc1ccc(NC(=O)C2CCN(S(=O)(=O)c3ccc4c(c3)NC(=O)C(C)S4)CC2)cc1C (stereo unspecified)
AC50 [1]: 2.61 µM (active) | AC50 [2]: 68.3 µM (active) | AC50 [4]: 6.43 µM (active)

CC(C)C(=O)C(C)(C)CCc1ccccn1
AC50 [6]: 2.51 µM (inconclusive)

N#CCCn1cc(/C=C2\NC(=S)N(c3ccccc3)C2=O)c(-c2ccc(-c3ccccc3)cc2)n1
CC50 [5]: 38.2 µM (active)

Nc1ncncc1-c1ccc([N+](=O)[O-])cc1
AC50 [6]: 28.2 µM (inconclusive) | AC50 ([11]; read-out: AC50): 10 µM (inconclusive) | AC50 [7]: 12.6 µM (inconclusive)

CC1CC(C)(C)N(C(=O)NC2CCCCC2)c2ccccc21 (stereo unspecified)
EC50 [9]: > 260 µM (inactive)

Cc1ccc(S(=O)(=O)c2cccc(S(=O)(=O)N3CCCC3)c2)cc1S(=O)(=O)N1CCCC1
EC50 [18]: 35.7 µM (active) | EC50 [19]: 28.3 µM (active)

Cc1cc(C)n2cc(COc3ccc4ccccc4c3)nc2n1
EC50 [9]: > 260 µM (inconclusive)

COc1ccc2c(c1)N(CC[C@H]1CCCCN1C)c1ccccc1S2
AC50 [6]: 1.26 µM (inconclusive)

O=C(NN=C1CCCC1)c1cc(-c2ccccc2)[nH]n1
AC50 [12]: 16.9 µM (active)

COC(=O)C1=C(C)N=C2SC(C#N)=C(N)N2C1c1cccc(OC)c1 (stereo unspecified)
EC50 [20]: > 300 µM (not active) | EC50 [21]: > 112 µM (not active) | EC50 [22]: > 300 µM (not active) | EC50 [23]: > 112 µM (not active)

CC1(CCC(=O)N2CCCC(Nc3ccc(F)cc3)C2)CC1 (stereo unspecified)
AC50 [12]: 5.27 µM (active)

Cc1ccc(NC2CCCN(C(=O)c3cn4cccc(C)c4n3)C2)cc1C (stereo unspecified)
AC50 [12]: 9.91 µM (active)

COC(=O)N1CCC[C@@]2(CCN(C(=O)Nc3ccccc3)C2)C1
AC50 [6]: 12.6 µM (inconclusive)

CCNC(=S)N/N=C/c1ccc(-c2ccccc2)o1
EC50 [9]: > 260 µM (inactive)

BrC(/C=C\c1ccccc1)=N/Nc1nc(N2CCOCC2)nc(N2CCOCC2)n1
EC50 [9]: > 260 µM (inactive)

COc1ccc(/C=N/NC(=O)c2ccncc2)cc1CN1CCN(c2ccc(F)cc2)CC1
AC50 [12]: 7.46 µM (active) | EC50 [21]: > 112 µM (not active) | EC50 [23]: > 112 µM (not active)

O=C1CC(=C(c2ccccc2)c2ccccc2)C(=O)N1CCCCN1CCN(c2ccccc2)CC1
CC50 [5]: > 40 µM (active)
